The results in this text go back to US8871751B2, “Compositions and methods relating to nuclear hormone and steroid hormone receptors including inhibitors of estrogen receptor alpha-mediated gene expression and inhibition of breast cancer” (The Board of Trustees of the University of Illinois, priority 2008, dated 2014).

The structures appear in SMILES notation. Where two headings read alike, the source gives them in different places.

In assay [1] the target is T1, ERα (Homo sapiens, UniProt P03372).
T1 sequence (P03372 1-595): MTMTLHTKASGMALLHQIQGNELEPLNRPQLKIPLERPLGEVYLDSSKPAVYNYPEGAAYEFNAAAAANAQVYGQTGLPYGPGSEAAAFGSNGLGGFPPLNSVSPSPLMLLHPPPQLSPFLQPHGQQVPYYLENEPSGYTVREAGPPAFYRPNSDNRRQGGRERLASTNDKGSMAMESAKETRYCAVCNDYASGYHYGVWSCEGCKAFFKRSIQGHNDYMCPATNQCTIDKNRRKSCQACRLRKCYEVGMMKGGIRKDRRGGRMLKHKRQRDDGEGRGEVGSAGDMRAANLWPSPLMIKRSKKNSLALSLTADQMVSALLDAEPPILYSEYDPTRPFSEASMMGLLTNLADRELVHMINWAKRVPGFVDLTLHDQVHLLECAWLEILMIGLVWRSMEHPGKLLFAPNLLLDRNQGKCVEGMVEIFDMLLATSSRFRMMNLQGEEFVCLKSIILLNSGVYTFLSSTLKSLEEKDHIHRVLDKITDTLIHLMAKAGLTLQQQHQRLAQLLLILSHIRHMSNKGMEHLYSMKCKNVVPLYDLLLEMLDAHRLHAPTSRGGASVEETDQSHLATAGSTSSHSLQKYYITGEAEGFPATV
The experiment in a line: (ERE)3-luciferase reporter gene assay in T47D-KBluc cells. The assay is classed as cell-based. Further details: Using a stably transfected breast cancer cell line that expresses endogenous ERα; endogenous in cells; host or cells: T47D-KBluc. On the procedure:
The T47D-KBluc cells stably express an (ERE)3-luciferase reporter gene (38). […] Four days before E2 induction, the cells were switched to the above medium, with 10% 2× charcoal-dextran-treated calf serum instead of FBS. 200,000 cells/well were transferred to each well of a 24-well plate. After 24 h the indicated concentrations of the test compounds were added in DMSO and E2 was added to 20 pM. After 24 h cells were washed once in PBS, and 150 μl 1× Passive Lysis Buffer (Promega, Madison Wis.) was used to lyse the cells. Luciferase activity was determined using firefly luciferase reagents from Promega (Madison, Wis.).
Reporter Gene Assays. […] AR was assayed in stably transfected HeLa cells and GR was assayed in stably transfected T47D cells maintained as described above. Four days before each experiment the cells were switched to medium containing CD-treated serum as described above. The HeLaAR cells were plated at 100,000 cells/well and the T47D/A1-2 and T47D-KBluc cells were plated at 200,000 cells/well in 1 ml of their respective media in 24-well plates. After 24 hours the indicated concentrations of E2, dihydrotestosterone (DHT) or dexamethasone (Dex) and DMSO vehicle, with or without TPSF, were added to each well. After 24 hours, the cells were washed once in phosphate buffered saline and lysed using 100 μl of 1× Passive Lysis Buffer (Promega, Madison Wis.). Luciferase activity was determined using BrightGlo firefly luciferase reagent from Promega (Madison, Wis.).
A general note: In a reporter assay the amount or activity of a reporter protein is the signal.

For assay [2], the target named is T2, PR (Homo sapiens, UniProt P06401).
T2 construct: endogenous in cells; host or cells: T47D (stably transfected with GR and MMTV-luciferase)
T2 sequence (P06401 1-933): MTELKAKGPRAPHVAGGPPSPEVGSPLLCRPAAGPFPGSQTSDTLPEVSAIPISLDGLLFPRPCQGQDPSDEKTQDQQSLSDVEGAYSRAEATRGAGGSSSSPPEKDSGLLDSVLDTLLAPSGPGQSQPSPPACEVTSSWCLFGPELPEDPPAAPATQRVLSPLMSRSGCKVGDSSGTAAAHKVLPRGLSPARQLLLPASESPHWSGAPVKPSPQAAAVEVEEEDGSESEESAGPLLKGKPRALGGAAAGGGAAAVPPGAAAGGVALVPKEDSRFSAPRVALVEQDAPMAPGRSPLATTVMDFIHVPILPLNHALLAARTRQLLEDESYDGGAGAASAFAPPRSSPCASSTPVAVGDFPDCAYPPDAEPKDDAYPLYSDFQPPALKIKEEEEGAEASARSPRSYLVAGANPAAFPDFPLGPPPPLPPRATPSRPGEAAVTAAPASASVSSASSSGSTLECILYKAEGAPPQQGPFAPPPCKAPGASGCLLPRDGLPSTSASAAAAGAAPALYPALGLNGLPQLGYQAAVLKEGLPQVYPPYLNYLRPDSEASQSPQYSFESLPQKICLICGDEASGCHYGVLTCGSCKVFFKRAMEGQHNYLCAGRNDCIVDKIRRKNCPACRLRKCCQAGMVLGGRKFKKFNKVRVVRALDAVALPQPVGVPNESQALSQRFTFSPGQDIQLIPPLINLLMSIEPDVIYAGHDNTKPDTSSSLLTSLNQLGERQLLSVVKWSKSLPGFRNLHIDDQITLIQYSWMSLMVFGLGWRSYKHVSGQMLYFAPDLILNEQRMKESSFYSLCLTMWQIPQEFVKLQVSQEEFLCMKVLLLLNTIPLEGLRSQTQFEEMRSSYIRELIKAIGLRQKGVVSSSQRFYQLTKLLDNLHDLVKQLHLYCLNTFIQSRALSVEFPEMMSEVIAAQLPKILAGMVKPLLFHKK
The assay can be described thus: PR transactivation, MMTV-luciferase reporter in T47D cells. The class given is cell-based. As to the method:
The T47D-KBluc cells stably express an (ERE)3-luciferase reporter gene (38). Cells were maintained in phenol red-free RPMI 1640 with 2 mM L-glutamine, 1.5 g/l sodium bicarbonate, 4.5 g/l glucose, 10 mM Hepes, pH 7.5, 1 mM sodium pyruvate, 10% FBS (Atlanta Biological, Atlanta, Ga.) and antibiotics. Four days before E2 induction, the cells were switched to the above medium, with 10% 2× charcoal-dextran-treated calf serum instead of FBS. 200,000 cells/well were transferred to each well of a 24-well plate. After 24 h the indicated concentrations of the test compounds were added in DMSO and E2 was added to 20 pM. After 24 h cells were washed once in PBS, and 150 μl 1× Passive Lysis Buffer (Promega, Madison Wis.) was used to lyse the cells. Luciferase activity was determined using firefly luciferase reagents from Promega (Madison, Wis.). T47D cells stably transfected to express GR and a mouse mammary tumor virus luciferase reporter that responds to liganded GR and PR were maintained and assayed in medium containing 5 nM progesterone for PR assays, or 2.5 nM dexamethsaone for GR assays, essentially as described (39).

Setting [3] is: T47D-KBluc cells, 20 pM E2, 24 h, read-out: IC50 for inhibition of E2 dependent ERα transactivation, (ERE)3-luciferase.

As for `CN1CCC(C#N)c2ccccc21` (stereo not drawn) [Compound 1529], in assay [1] (setting [3]), the IC50 amounted to 22000 nM.

On to `CCCSc1nc2c([nH]1)c(=O)n(C)c(=S)n2C` [Compound 95869, 1,3-Dimethyl-8-propylsulfanyl-2-thioxo-1,2,3,7-tetrahydro-purin-6-one], for which the “ER at 10 μM” value in assay [1] came out at 20. Also, the “PR at 30 μM” value in assay [2] is given as 0.

In the case of `Cn1c(=O)c2[nH]c(SC3CCCCC3)nc2n(C)c1=S` [Compound 95899, 8-Cyclohexylsulfanyl-1,3-dimethyl-2-thioxo-1,2,3,7-tetrahydro-purin-6-one], the “ER at 10 μM” value in assay [1] turned out to be 36. Also, the “PR at 30 μM” value in assay [2] was 42.

As for `Cn1c(=O)c2nc(CSCc3ccccc3)[nH]c2n(C)c1=O` [Compound 95910, 8-Benzylsulfanylmethyl-1,3-dimethyl-3,7-dihydro-purine-2,6-dione], the “effect on PR transactivation” value in assay [2] (5 nM progesterone, up to 30 μM) was “did not significantly inhibit”.

With `Cn1c(=O)c2[nH]c(C3CC4CCC3C4)nc2n(C)c1=O` (stereo not drawn) [Compound 101807, 8-Bicyclo[2.2.1]hept-2-yl-1,3-dimethyl-3,7-dihydro-purine-2,6-dione], the “ER at 10 μM” value in assay [1] is listed as 0. In addition, the “PR at 30 μM” value in assay [2] stood at 71.

With `CN(C)CCCn1c2c3ccccc3ccc2c2oc(=O)c3ccccc3c21` [Compound 638432], the IC50 in assay [1] (setting [3]) came out at 800 nM.

In the case of `Cn1c(=S)c2[nH]c(SCCCC(=O)c3ccc(F)cc3)nc2n(C)c1=O` [TPSF, Butyrophenone, p-fluoro-4-(1,2,3,6,-tetrahydro-1,3-dimethyl-2-oxo-6-thionopurin-8-ylthio)], in assay [1], the “concentrations necessary to inhibit AR and GR relative to average IC50 for the two ER-regulated genes (higher)” value was 20-70 fold; the “potency as ERα inhibitor relative to TPBM (more potent)” value is reported as over 15 fold. Further, the IC50 in assay [1] (PI-9 in MCF-7 and (ERE)3-Luc in T47D, read-out: average IC50 for inhibition of the two ER-regulated genes) turned out to be 450 nM.

Usually IC50 stands for the concentration at which inhibition is half-maximal.
